# Source: US7935670B2, “Hepatitis C virus inhibitors” (Bristol-Myers Squibb Company, priority 2006, dated 2011)
# Where two headings read alike, the source gives them in different places.
# Legend:
# [1] = biological target: T1, human neutrophil elastase (HNE) (Homo sapiens, UniProt P08246); experiment: Specificity assay, human neutrophil elastase; format: biochemical; details: 2 h enzyme-inhibitor pre-incubation; read-out: HLE activity (IC50) in the specificity assay
# T1 construct: purchased Sigma
# T1 sequence (P08246 30-267): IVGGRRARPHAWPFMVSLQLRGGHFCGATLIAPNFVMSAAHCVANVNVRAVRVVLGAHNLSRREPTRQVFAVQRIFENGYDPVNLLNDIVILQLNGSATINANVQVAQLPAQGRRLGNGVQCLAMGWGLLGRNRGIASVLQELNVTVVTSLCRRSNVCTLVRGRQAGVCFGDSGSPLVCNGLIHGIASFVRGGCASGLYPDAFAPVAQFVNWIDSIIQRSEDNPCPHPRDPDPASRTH
# Method: The specificities of compounds of the present disclosure were determined against a variety of serine proteases: human neutrophil elastase (HNE), porcine pancreatic elastase (PPE) and human pancreatic chymotrypsin and one cysteine protease: human liver cathepsin B. In all cases a 96-well plate format protocol using colorimetric p-nitroaniline (pNA) substrate specific for each enzyme was used as described previously (PCT Patent Application No. WO 00/09543) with some modifications to the serine protease assays. All enzymes were purchased from Sigma while the substrates were from Bachem.
# Each assay included a 2 h enzyme-inhibitor pre-incubation at room temperature followed by addition of substrate and hydrolysis to ˜30% conversion as measured on a Spectramax Pro microplate reader. Compound concentrations varied from 100 to 0.4 μM depending on their potency.
# 50 mM Tris(hydroxymethyl)aminomethane hydrochloride (Tris-HCl) pH 8, 0.5 M Sodium Sulfate (Na2SO4), 50 mM NaCl, 0.1 mM EDTA, 3% DMSO, 0.01% Tween-20 with:
# 133 μM succ-AAA-pNA and 20 nM HNE or 8 nM PPE; 100 μM succ-AAPF-pNA and […] Chymotrypsin.
# The percentage of inhibition was calculated using the formula: [1−((UVinh−UVblank)/(UVctl−UVblank))]×100
# A non-linear curve fit was applied to the inhibition-concentration data, and the 50% effective concentration (IC50) was calculated by the use of Excel Xl-fit software.
# [2] = system: HCV replicon in HUH-7 cells; experiment: HCV replicon FRET assay; format: cell-based, HCV strain 1b; details: Hepatitis C virus
# Description: An HCV replicon whole cell system was established as described by Lohmann V, Korner F, Koch J, Herian U, Theilmann L, Bartenschlager R., Science 285(5424): 110-3 (1999). This system enabled us to evaluate the effects of our HCV Protease compounds on HCV RNA replication. Briefly, using the HCV strain 1b sequence described in the Lohmann paper (Assession number: AJ238799), an HCV cDNA was synthesized by Operon Technologies, Inc. (Alameda, Calif.), and the full-length replicon was then assembled in plasmid pGem9zf(+) (Promega, Madison, Wis.) using standard molecular biology techniques. The replicon consists of (i) the HCV 5′ UTR fused to the first 12 amino acids of the capsid protein, (ii) the neomycin phosphotransferase gene (neo), (iii) the IRES from encephalomyocarditis virus (EMCV), and (iv) HCV NS3 to NS5B genes and the HCV 3′ UTR. Plasmid DNAs were linearized with ScaI and RNA transcripts were synthesized in vitro using the T7 MegaScript transcription kit (Ambion, Austin, Tex.) according to manufacturer's directions. In vitro transcripts of the cDNA were transfected into the human hepatoma cell line, HUH-7. […] Resulting cell lines were characterized for positive and negative strand RNA production and protein production over time.
# The HCV replicon FRET assay was developed to monitor the inhibitory effects of compounds described in the disclosure on HCV viral replication. HUH-7 cells, constitutively expressing the HCV replicon, were grown in Dulbecco's Modified Eagle Media (DMEM) (Gibco-BRL) containing 10% Fetal calf serum (FCS) (Sigma) and 1 mg/ml G418 (Gibco-BRL). Cells were seeded the night before (1.5×10^4 cells/well) in 96-well tissue-culture sterile plates. Compound and no compound controls were prepared in DMEM containing 4% FCS, 1:100 Penicillin/Streptomysin (Gibco-BRL), 1:100 L-glutamine and 5% DMSO in the dilution plate (0.5% DMSO final concentration in the assay). Compound/DMSO mixes were added to the cells and incubated for 4 days at 37° C. After 4 days, cells were first assessed for cytotoxicity using alamar Blue (Trek Diagnotstic Systems) for a CC50 reading. The toxicity of compound (CC50) was determined by adding 1/10th volume of alamar Blue to the media incubating the cells. After 4 h, the fluorescence signal from each well was read, with an excitation wavelength at 530 nm and an emission wavelength of 580 nm, using the Cytofluor Series 4000 (Perspective Biosystems). Plates were then rinsed thoroughly with Phosphate-Buffered Saline (PBS) (3 times 150 μl). The cells were lysed with 25 μl of a lysis assay reagent containing an HCV protease substrate (5× cell Luciferase cell culture lysis reagent (Promega #E153A) diluted to 1× with distilled water, NaCl added to 150 mM final, the FRET peptide substrate (as described for the enzyme assay above) diluted to 10 μM final from a 2 mM stock in 100% DMSO. The plate was then placed into the Cytofluor 4000 instrument which had been set to 340 nm excitation/490 nm emission, automatic mode for 21 cycles and the plate read in a kinetic mode. EC50 determinations were carried out as described for the IC50 determinations.
structure (smiles),measurement,setting,value
C=C[C@@H]1C[C@]1(NC(=O)[C@@H]1C[C@@H](OC(=O)c2ccccc2)CN1C(=O)[C@@H](NC(=O)OC(C)(C)C)C(C)(C)C)C(=O)NS(=O)(=O)C1CC1 [Compound 1],IC50,[1],> 200000 nM
same,EC50,"[2]; 96 h, HUH-7 replicon cells, 4 days, read-out: EC50 in the replicon FRET assay",484 nM
same,EC50,"[2]; Huh-7, read-out: Activity Range (EC50)",200 to 1000 nM
